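How tested: cells in 96-well plates exposed to compound for 48 hours at five concentrations. Definition used: TGI = concentration required for complete inhibition of growth.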
Key:
Experiment in all cases: NCI anticancer screen, dose series, 48 h
MALME-3M melanoma = system: MALME-3M melanoma
SK-OV-3 ovarian = system: SK-OV-3 ovarian
LOX IMVI melanoma = system: LOX IMVI melanoma
SF-539 CNS = system: SF-539 CNS
CCRF-CEM leukemia = system: CCRF-CEM leukemia
UACC-62 melanoma = system: UACC-62 melanoma
SF-268 CNS = system: SF-268 CNS
NCI-H522 lung = system: NCI-H522 lung
DU-145 prostate = system: DU-145 prostate
SF-295 CNS = system: SF-295 CNS
MDA-MB-231 breast = system: MDA-MB-231 breast
TK-10 renal = system: TK-10 renal
HOP-92 NSCLC = system: HOP-92 NSCLC
UO-31 renal = system: UO-31 renal
MOLT-4 leukemia = system: MOLT-4 leukemia
NCI/ADR-RES ovarian = system: NCI/ADR-RES ovarian
COLO 205 colon = system: COLO 205 colon
MCF7 breast = system: MCF7 breast
HT29 colon = system: HT29 colon
MDA-MB-435 = system: MDA-MB-435
HS 578T breast = system: HS 578T breast
NCI-H226 lung = system: NCI-H226 lung
CAKI-1 renal = system: CAKI-1 renal
HCT-116 colon = system: HCT-116 colon
OVCAR-4 ovarian = system: OVCAR-4 ovarian
OVCAR-3 ovarian = system: OVCAR-3 ovarian
RXF 393 renal = system: RXF 393 renal
SN12C renal = system: SN12C renal
HOP-62 NSCLC = system: HOP-62 NSCLC
EKVX NSCLC = system: EKVX NSCLC
SW-620 colon = system: SW-620 colon
786-0 renal = system: 786-0 renal
HL-60(TB) leukemia = system: HL-60(TB) leukemia
SK-MEL-28 melanoma = system: SK-MEL-28 melanoma
K-562 leukemia = system: K-562 leukemia
UACC-257 melanoma = system: UACC-257 melanoma
NCI-H460 lung = system: NCI-H460 lung
RPMI-8226 leukemia = system: RPMI-8226 leukemia
PC-3 prostate = system: PC-3 prostate
T-47D breast = system: T-47D breast
OVCAR-8 ovarian = system: OVCAR-8 ovarian
SNB-75 CNS = system: SNB-75 CNS
SK-MEL-5 melanoma = system: SK-MEL-5 melanoma
A549 NSCLC = system: A549 NSCLC
NCI-H23 lung = system: NCI-H23 lung
A498 renal = system: A498 renal
MDA-N = system: MDA-N
M14 melanoma = system: M14 melanoma
SR leukemia = system: SR leukemia
IGROV1 ovarian = system: IGROV1 ovarian
SNB-19 CNS = system: SNB-19 CNS
ACHN renal = system: ACHN renal
KM12 colon = system: KM12 colon
OVCAR-5 ovarian = system: OVCAR-5 ovarian
U251 CNS = system: U251 CNS
HCT-15 colon = system: HCT-15 colon
HCC-2998 colon = system: HCC-2998 colon

Question: With CC(CO)CCNc1ncnc2c1ncn2CCC(=O)O (stereo not drawn) as the compound, how does the TGI (MALME-3M melanoma) read?
Answer: Its TGI is > 100 µM.

Question: What about the TGI (SK-OV-3 ovarian) of the same compound?
Answer: The TGI was > 100 µM.

Question: And the TGI (LOX IMVI melanoma)?
Answer: Its TGI is > 100 µM.

Question: What about the TGI (SF-539 CNS) of the same compound?
Answer: The TGI was > 100 µM.

Question: What about the TGI (CCRF-CEM leukemia) of the same compound?
Answer: Its TGI is > 100 µM.

Question: What about the TGI (UACC-62 melanoma) of the same compound?
Answer: The TGI was > 100 µM.

Question: And the TGI (SF-268 CNS)?
Answer: The TGI was > 100 µM.

Question: What about the TGI (NCI-H522 lung) of the same compound?
Answer: Its TGI is > 100 µM.

Question: What about the TGI (DU-145 prostate) of the same compound?
Answer: Its TGI is > 100 µM.

Question: And the TGI (SF-295 CNS)?
Answer: Its TGI is > 100 µM.

Question: What about the TGI (MDA-MB-231 breast) of the same compound?
Answer: The TGI was > 100 µM.

Question: And the TGI (TK-10 renal)?
Answer: The TGI was > 100 µM.

Question: And the TGI (HOP-92 NSCLC)?
Answer: The TGI was > 100 µM.

Question: What about the TGI (UO-31 renal) of the same compound?
Answer: Its TGI is > 100 µM.

Question: And the TGI (MOLT-4 leukemia)?
Answer: Its TGI is > 100 µM.

Question: What about the TGI (NCI/ADR-RES ovarian) of the same compound?
Answer: Its TGI is > 100 µM.

Question: What about the TGI (COLO 205 colon) of the same compound?
Answer: Its TGI is > 100 µM.

Question: And the TGI (MCF7 breast)?
Answer: The TGI was > 100 µM.

Question: And the TGI (HT29 colon)?
Answer: Its TGI is > 100 µM.

Question: And the TGI (MDA-MB-435)?
Answer: Its TGI is > 100 µM.

Question: What about the TGI (HS 578T breast) of the same compound?
Answer: The TGI was > 100 µM.

Question: And the TGI (NCI-H226 lung)?
Answer: The TGI was > 100 µM.

Question: And the TGI (CAKI-1 renal)?
Answer: The TGI was > 100 µM.

Question: What about the TGI (HCT-116 colon) of the same compound?
Answer: The TGI was > 100 µM.

Question: What about the TGI (OVCAR-4 ovarian) of the same compound?
Answer: Its TGI is > 100 µM.

Question: And the TGI (OVCAR-3 ovarian)?
Answer: The TGI was > 100 µM.

Question: What about the TGI (RXF 393 renal) of the same compound?
Answer: The TGI was > 100 µM.

Question: What about the TGI (SN12C renal) of the same compound?
Answer: Its TGI is > 100 µM.

Question: What about the TGI (HOP-62 NSCLC) of the same compound?
Answer: The TGI was > 100 µM.

Question: What about the TGI (EKVX NSCLC) of the same compound?
Answer: Its TGI is > 100 µM.

Question: What about the TGI (SW-620 colon) of the same compound?
Answer: The TGI was > 100 µM.

Question: And the TGI (786-0 renal)?
Answer: The TGI was > 100 µM.

Question: What about the TGI (HL-60(TB) leukemia) of the same compound?
Answer: Its TGI is > 100 µM.

Question: What about the TGI (SK-MEL-28 melanoma) of the same compound?
Answer: Its TGI is > 100 µM.

Question: What about the TGI (K-562 leukemia) of the same compound?
Answer: Its TGI is > 100 µM.

Question: What about the TGI (UACC-257 melanoma) of the same compound?
Answer: The TGI was > 100 µM.

Question: And the TGI (NCI-H460 lung)?
Answer: The TGI was > 100 µM.

Question: And the TGI (RPMI-8226 leukemia)?
Answer: The TGI was > 100 µM.

Question: What about the TGI (PC-3 prostate) of the same compound?
Answer: Its TGI is > 100 µM.

Question: And the TGI (T-47D breast)?
Answer: Its TGI is > 100 µM.

Question: And the TGI (OVCAR-8 ovarian)?
Answer: The TGI was > 100 µM.

Question: And the TGI (SNB-75 CNS)?
Answer: Its TGI is > 100 µM.

Question: And the TGI (SK-MEL-5 melanoma)?
Answer: Its TGI is > 100 µM.

Question: What about the TGI (A549 NSCLC) of the same compound?
Answer: The TGI was > 100 µM.

Question: What about the TGI (NCI-H23 lung) of the same compound?
Answer: Its TGI is > 100 µM.

Question: And the TGI (A498 renal)?
Answer: Its TGI is > 100 µM.

Question: And the TGI (MDA-N)?
Answer: The TGI was > 100 µM.

Question: What about the TGI (M14 melanoma) of the same compound?
Answer: The TGI was > 100 µM.

Question: What about the TGI (SR leukemia) of the same compound?
Answer: The TGI was > 100 µM.

Question: And the TGI (IGROV1 ovarian)?
Answer: The TGI was > 100 µM.

Question: What about the TGI (SNB-19 CNS) of the same compound?
Answer: The TGI was > 100 µM.

Question: And the TGI (ACHN renal)?
Answer: Its TGI is > 100 µM.

Question: And the TGI (KM12 colon)?
Answer: The TGI was > 100 µM.

Question: And the TGI (OVCAR-5 ovarian)?
Answer: The TGI was > 100 µM.

Question: With Cc1oc2c(cc(O)c3ccccc32)c2cccc1-2 as the compound, how does the TGI (MALME-3M melanoma) read?
Answer: The TGI was > 100 µM.

Question: And the TGI (SK-OV-3 ovarian)?
Answer: The TGI was > 100 µM.

Question: And the TGI (LOX IMVI melanoma)?
Answer: The TGI was > 100 µM.

Question: What about the TGI (SF-539 CNS) of the same compound?
Answer: Its TGI is > 100 µM.

Question: And the TGI (CCRF-CEM leukemia)?
Answer: The TGI was > 100 µM.

Question: What about the TGI (SF-268 CNS) of the same compound?
Answer: Its TGI is > 100 µM.

Question: And the TGI (U251 CNS)?
Answer: The TGI was > 100 µM.

Question: What about the TGI (DU-145 prostate) of the same compound?
Answer: Its TGI is > 100 µM.

Question: What about the TGI (SF-295 CNS) of the same compound?
Answer: The TGI was > 100 µM.

Question: And the TGI (MDA-MB-231 breast)?
Answer: Its TGI is 34.8 µM.

Question: What about the TGI (TK-10 renal) of the same compound?
Answer: The TGI was > 100 µM.

Question: What about the TGI (HOP-92 NSCLC) of the same compound?
Answer: Its TGI is > 100 µM.

Question: And the TGI (MOLT-4 leukemia)?
Answer: The TGI was > 100 µM.

Question: And the TGI (NCI/ADR-RES ovarian)?
Answer: The TGI was > 100 µM.

Question: And the TGI (COLO 205 colon)?
Answer: The TGI was > 100 µM.

Question: What about the TGI (MCF7 breast) of the same compound?
Answer: The TGI was > 100 µM.

Question: And the TGI (HT29 colon)?
Answer: Its TGI is > 100 µM.

Question: What about the TGI (MDA-MB-435) of the same compound?
Answer: Its TGI is > 100 µM.

Question: And the TGI (HS 578T breast)?
Answer: The TGI was > 100 µM.

Question: And the TGI (CAKI-1 renal)?
Answer: Its TGI is > 100 µM.

Question: What about the TGI (HCT-116 colon) of the same compound?
Answer: The TGI was > 100 µM.

Question: And the TGI (HCT-15 colon)?
Answer: The TGI was > 100 µM.

Question: And the TGI (OVCAR-3 ovarian)?
Answer: The TGI was > 100 µM.

Question: What about the TGI (SN12C renal) of the same compound?
Answer: Its TGI is > 100 µM.

Question: What about the TGI (HOP-62 NSCLC) of the same compound?
Answer: The TGI was > 100 µM.

Question: What about the TGI (HCC-2998 colon) of the same compound?
Answer: Its TGI is > 100 µM.

Question: What about the TGI (EKVX NSCLC) of the same compound?
Answer: The TGI was > 100 µM.

Question: What about the TGI (SW-620 colon) of the same compound?
Answer: Its TGI is > 100 µM.

Question: And the TGI (786-0 renal)?
Answer: Its TGI is > 100 µM.

Question: And the TGI (HL-60(TB) leukemia)?
Answer: Its TGI is > 100 µM.

Question: And the TGI (SK-MEL-28 melanoma)?
Answer: Its TGI is > 100 µM.

Question: And the TGI (UACC-257 melanoma)?
Answer: Its TGI is > 100 µM.

Question: And the TGI (NCI-H460 lung)?
Answer: The TGI was > 100 µM.

Question: What about the TGI (RPMI-8226 leukemia) of the same compound?
Answer: Its TGI is > 100 µM.

Question: And the TGI (PC-3 prostate)?
Answer: The TGI was > 100 µM.

Question: What about the TGI (T-47D breast) of the same compound?
Answer: The TGI was > 100 µM.

Question: And the TGI (OVCAR-8 ovarian)?
Answer: Its TGI is > 100 µM.

Question: And the TGI (SNB-75 CNS)?
Answer: The TGI was > 100 µM.

Question: And the TGI (SK-MEL-5 melanoma)?
Answer: The TGI was > 100 µM.

Question: And the TGI (A549 NSCLC)?
Answer: The TGI was > 100 µM.

Question: And the TGI (NCI-H23 lung)?
Answer: Its TGI is > 100 µM.

Question: What about the TGI (A498 renal) of the same compound?
Answer: The TGI was > 100 µM.

Question: And the TGI (MDA-N)?
Answer: Its TGI is > 100 µM.

Question: What about the TGI (M14 melanoma) of the same compound?
Answer: The TGI was 76.7 µM.

Question: And the TGI (SR leukemia)?
Answer: Its TGI is > 100 µM.

Question: What about the TGI (SNB-19 CNS) of the same compound?
Answer: Its TGI is > 100 µM.

Question: What about the TGI (ACHN renal) of the same compound?
Answer: The TGI was > 100 µM.

Question: And the TGI (KM12 colon)?
Answer: The TGI was > 100 µM.

Question: What about the TGI (OVCAR-5 ovarian) of the same compound?
Answer: Its TGI is > 100 µM.

Source: PubChem BioAssay (NCI)
